In ChEMBL document CHEMBL4321791, “TASK Channels Pharmacology: New Challenges in Drug Design” (J Med Chem, 2019):
Structures can show the parent of a compound that is named as a salt.

Legend:
[1] = target: T1, Potassium channel subfamily K member 9 (Homo sapiens, UniProt Q9NPC2); test: Inhibition of human TASK3 expressed in HEK293 cells by Ti+ flux assay; type: cell-based
[2] = target: T2, Potassium channel subfamily K member 3 (Homo sapiens, UniProt O14649); test: Inhibition of human TASK1 expressed in Xenopus oocytes by whole cell voltage clamp assay; type: cell-based
Target sequence in this assay (O14649 whole entry): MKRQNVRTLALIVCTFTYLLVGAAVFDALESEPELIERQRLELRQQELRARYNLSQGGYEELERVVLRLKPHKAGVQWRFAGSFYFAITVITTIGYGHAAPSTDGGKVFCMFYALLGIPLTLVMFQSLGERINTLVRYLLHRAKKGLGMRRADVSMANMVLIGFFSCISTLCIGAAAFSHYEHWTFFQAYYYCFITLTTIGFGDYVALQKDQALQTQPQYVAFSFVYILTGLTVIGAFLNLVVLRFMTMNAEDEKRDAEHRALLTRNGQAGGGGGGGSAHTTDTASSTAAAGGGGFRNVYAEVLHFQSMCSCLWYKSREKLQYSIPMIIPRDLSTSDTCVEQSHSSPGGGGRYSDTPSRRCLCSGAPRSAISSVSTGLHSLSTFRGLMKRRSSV

[3] = target: T1, Potassium channel subfamily K member 9; test: Inhibition of human TASK3 expressed in Xenopus oocytes by whole cell voltage clamp assay; type: cell-based
[4] = target: T2, Potassium channel subfamily K member 3; test: Inhibition of human TASK1 by whole cell voltage clamp assay
Target sequence in this assay (O14649 whole entry): as above

[5] = target: T3, Potassium channel subfamily K member 9 (Rattus norvegicus, UniProt Q9ES08); test: Inhibition of rat TASK3 expressed in (FRT) epithelial cells by chamber based electrophysiology assay; type: cell-based
T3 sequence (Q9ES08 whole entry): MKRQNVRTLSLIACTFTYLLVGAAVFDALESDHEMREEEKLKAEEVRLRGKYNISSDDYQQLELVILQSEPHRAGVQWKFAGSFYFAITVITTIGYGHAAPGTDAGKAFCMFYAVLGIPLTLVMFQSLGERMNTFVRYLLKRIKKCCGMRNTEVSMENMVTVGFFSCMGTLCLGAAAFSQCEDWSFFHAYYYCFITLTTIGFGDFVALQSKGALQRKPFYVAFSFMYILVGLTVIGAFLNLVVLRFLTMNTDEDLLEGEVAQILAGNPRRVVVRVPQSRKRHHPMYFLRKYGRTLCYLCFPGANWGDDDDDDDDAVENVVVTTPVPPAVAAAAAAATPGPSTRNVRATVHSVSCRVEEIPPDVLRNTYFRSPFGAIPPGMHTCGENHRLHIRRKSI

[6] = species on record: Homo sapiens; test: Selectivity index, ratio of IC50 for Kv1.5 channel (unknown origin) to IC50 for inhibition of human TASK1 expressed in Xenopus oocytes by whole cell voltage clamp assay; type: cell-based
[7] = target: T1, Potassium channel subfamily K member 9; test: Inhibition of human TASK3 expressed in CHO cells by Inside-out macro-patches based electrophysiology assay; type: cell-based
[8] = target: T4, Potassium channel subfamily K member 17 (Homo sapiens, UniProt Q96T54); test: Inhibition of human TASK4 expressed in CHO cells by Inside-out macro-patches based electrophysiology assay; type: cell-based
T4 sequence (Q96T54 whole entry): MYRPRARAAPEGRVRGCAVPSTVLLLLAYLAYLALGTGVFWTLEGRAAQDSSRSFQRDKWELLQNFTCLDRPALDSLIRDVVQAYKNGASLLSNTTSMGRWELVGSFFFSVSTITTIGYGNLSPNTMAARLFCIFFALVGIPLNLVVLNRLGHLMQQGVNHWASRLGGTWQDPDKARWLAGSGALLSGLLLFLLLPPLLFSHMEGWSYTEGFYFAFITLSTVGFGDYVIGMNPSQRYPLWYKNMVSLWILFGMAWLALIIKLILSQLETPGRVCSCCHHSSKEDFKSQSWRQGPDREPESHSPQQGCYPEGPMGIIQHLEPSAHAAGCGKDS

[9] = target: T5, Potassium channel subfamily K member 5 (Homo sapiens, UniProt O95279); test: Inhibition of human TASK2 expressed in CHO cells by Inside-out macro-patches based electrophysiology assay; type: cell-based
T5 sequence (O95279 whole entry): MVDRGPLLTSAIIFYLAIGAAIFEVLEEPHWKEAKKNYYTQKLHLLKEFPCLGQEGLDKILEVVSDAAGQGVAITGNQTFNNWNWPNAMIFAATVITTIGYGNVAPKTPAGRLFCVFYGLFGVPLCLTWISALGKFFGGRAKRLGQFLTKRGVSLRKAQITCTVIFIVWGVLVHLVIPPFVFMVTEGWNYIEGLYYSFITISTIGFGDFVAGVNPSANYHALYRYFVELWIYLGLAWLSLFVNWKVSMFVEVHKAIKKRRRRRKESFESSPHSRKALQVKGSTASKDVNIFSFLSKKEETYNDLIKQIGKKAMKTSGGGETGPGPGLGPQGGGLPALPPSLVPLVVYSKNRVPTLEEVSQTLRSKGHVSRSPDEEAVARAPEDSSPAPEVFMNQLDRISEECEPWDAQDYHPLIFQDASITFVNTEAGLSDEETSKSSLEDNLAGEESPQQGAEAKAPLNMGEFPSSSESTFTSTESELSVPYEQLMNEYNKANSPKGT

[10] = target: T3, Potassium channel subfamily K member 9; test: Inhibition of rat TASK3 expressed in Xenopus oocytes by whole cell voltage clamp assay; type: cell-based
[11] = target: T6, Potassium channel subfamily K member 3 (Rattus norvegicus, UniProt O54912); test: Inhibition of rat TASK1 expressed in Xenopus oocytes by whole cell voltage clamp assay; type: cell-based
T6 sequence (O54912 whole entry): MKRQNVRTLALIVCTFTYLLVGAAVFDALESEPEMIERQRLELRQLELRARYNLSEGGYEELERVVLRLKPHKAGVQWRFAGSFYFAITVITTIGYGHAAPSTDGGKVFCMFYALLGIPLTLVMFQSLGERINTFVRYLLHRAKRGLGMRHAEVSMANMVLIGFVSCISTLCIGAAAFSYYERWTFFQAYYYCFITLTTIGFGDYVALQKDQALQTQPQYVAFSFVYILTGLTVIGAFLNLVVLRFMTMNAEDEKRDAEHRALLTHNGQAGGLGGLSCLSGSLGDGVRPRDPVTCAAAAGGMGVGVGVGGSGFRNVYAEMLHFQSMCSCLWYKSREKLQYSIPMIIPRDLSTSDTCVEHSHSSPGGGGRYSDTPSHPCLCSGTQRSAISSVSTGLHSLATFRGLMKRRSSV

[12] = target: T1, Potassium channel subfamily K member 9; test: Inhibition of human TASK3 expressed in CHOK1 cells by Ti+ flux assay; type: cell-based
[13] = target: Potassium channel subfamily K member 9 (Rattus norvegicus) (UniProt Q9ES08); test: Inhibition of rat TASK3 expressed in African green monkey COS7 cells at 100 uM by outside-out patches based electrophysiology assay relative to control; type: cell-based
Sequence of Potassium channel subfamily K member 9 (Rattus norvegicus) (Q9ES08 whole entry): as the sequence (Q9ES08 whole entry) above

[14] = target: T2, Potassium channel subfamily K member 3; test: Inhibition of human TASK1 expressed in African green monkey COS7 cells by whole cell patch clamp assay; type: cell-based
Target sequence in this assay (O14649 whole entry): as the sequence (O14649 whole entry) above

[15] = target: T1, Potassium channel subfamily K member 9; test: Activation of human TASK3 expressed in Xenopus oocytes at 1 mM by whole cell patch clamp assay relative to control; type: cell-based
[16] = target: T2, Potassium channel subfamily K member 3; test: Activation of human TASK1 expressed in African green monkey COS cells at 0.1 to 1 mM by whole cell patch clamp assay relative to control; type: cell-based
Target sequence in this assay (O14649 whole entry, looked up): as the sequence (O14649 whole entry) above

[17] = target: T2, Potassium channel subfamily K member 3; test: Activation of human TASK1 expressed in African green monkey COS cells at 1 mM by whole cell patch clamp assay relative to control; type: cell-based
Target sequence in this assay (O14649 whole entry, looked up): as the sequence (O14649 whole entry) above

[18] = target: Potassium channel subfamily K member 9 (Rattus norvegicus) (UniProt Q9ES08); test: Inhibition of rat TASK3 expressed in African green monkey COS7 cells at 1 mM by outside-out patches based electrophysiology assay relative to control; type: cell-based
[19] = target: T2, Potassium channel subfamily K member 3; test: Inhibition of human TASK1 expressed in African green monkey COS cells by whole cell patch clamp assay; type: cell-based
Target sequence in this assay (O14649 whole entry): as above

[20] = target: T2, Potassium channel subfamily K member 3; test: Inhibition of human TASK1 expressed in African green monkey COS cells at 0.6 mM by whole cell patch clamp assay relative to control; type: cell-based
Target sequence in this assay (O14649 whole entry, looked up): as the sequence (O14649 whole entry) above

[21] = target: T1, Potassium channel subfamily K member 9; test: Activation of human TASK3 expressed in human tsA201 cells at 1 uM by whole cell patch clamp assay relative to control; type: cell-based
[22] = target: T1, Potassium channel subfamily K member 9; settings: 1 uM
Description: Inhibition of human TASK3 expressed in Xenopus oocytes at 1 uM by whole cell patch clamp assay relative to control

[23] = target: T2, Potassium channel subfamily K member 3; test: Activation of human TASK1 expressed in African green monkey COS cells at 2 mM by whole cell patch clamp assay relative to control; type: cell-based
Target sequence in this assay (O14649 whole entry, looked up): as the sequence (O14649 whole entry) above

[24] = target: T3, Potassium channel subfamily K member 9; test: Inhibition of rat TASK3 expressed in African green monkey COS7 cells by outside-out patches based electrophysiology assay; type: cell-based
[25] = target: T6, Potassium channel subfamily K member 3; test: Inhibition of rat TASK1 expressed in African green monkey COS7 cells by outside-out patches based electrophysiology assay; type: cell-based
[26] = target: T1, Potassium channel subfamily K member 9; test: Inhibition of human TASK3 expressed in HEK293 by whole cell voltage clamp assay; type: cell-based

T1 sequence (Q9NPC2 whole entry): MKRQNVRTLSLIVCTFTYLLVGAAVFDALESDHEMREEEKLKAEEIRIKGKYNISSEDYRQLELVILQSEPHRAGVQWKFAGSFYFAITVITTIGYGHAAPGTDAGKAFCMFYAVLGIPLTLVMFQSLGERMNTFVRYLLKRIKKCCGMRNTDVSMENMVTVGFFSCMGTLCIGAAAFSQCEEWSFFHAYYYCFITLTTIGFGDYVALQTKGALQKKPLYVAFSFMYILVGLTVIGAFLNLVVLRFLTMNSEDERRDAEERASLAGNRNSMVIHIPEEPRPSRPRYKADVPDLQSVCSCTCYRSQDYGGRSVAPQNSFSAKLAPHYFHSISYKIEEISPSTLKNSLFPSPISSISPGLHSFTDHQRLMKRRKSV

CC[C@H](C)C(=O)O[C@H]1CCC=C2C=C[C@H](C)[C@H](CC[C@@H]3C[C@@H](O)CC(=O)O3)[C@H]21 [MEVASTATIN]
IC50 [1]: 159 µM

COCC(=O)O[C@]1(CCN(C)CCCc2nc3ccccc3[nH]2)CCc2cc(F)ccc2[C@@H]1C(C)C [MIBEFRADIL DIHYDROCHLORIDE]
IC50 ([1]; hek293): 24.6 µM

CCCN1CCCC[C@H]1C(=O)Nc1c(C)cccc1C [ROPIVACAINE]
IC50 [2]: 53 µM

CN(C)c1cc2c(Nc3ccc4c(cnn4Cc4ccccc4)c3)ncnc2cn1 [GW282974X]
IC50 [1]: 50.1 µM

CCCCS(=O)(=O)Nc1ccccc1C(=O)NC(CC)c1ccc(OC)nc1 (stereo not given)
IC50 [3]: 0.95 µM
IC50 [4]: 0.22 µM
IC50 [2]: 0.222 µM

COc1ccc(CC(=O)NCc2ccccc2-c2ccccc2C(=O)NCc2ccc(F)cc2F)cc1
IC50 [5]: 0.036 µM
IC50 [3]: 0.318 µM
Ratio IC50 [6]: 68
IC50 [7]: 0.07 µM
IC50 [2]: 0.035 µM
IC50 [8]: 8.1 µM
IC50 [9]: 12 µM

COc1ccc(CC(=O)NCc2ccccc2-c2ccccc2C(=O)NCCc2cccnc2)cc1
IC50 [2]: 0.6 µM

Cc1cccc(C)c1NC(=O)C1CCCCN1C (stereo not given) [MEPIVACAINE]
IC50 [2]: 709 µM

CCN1CC(CCN2CCOCC2)C(c2ccccc2)(c2ccccc2)C1=O (stereo not given) [DOXAPRAM]
IC50 [5]: 16 µM
IC50 [10]: 37 µM
IC50 [11]: 0.41 µM

O=C(NCCNc1ccc([N+](=O)[O-])cc1C(F)(F)F)c1ccccc1
fold change (FC) [12]: 6

CN1CCN(C2Cc3ccccc3Sc3ccc(Cl)cc32)CC1 (stereo not given) [CLOROTEPINE]
IC50 ([1]; hek293): 73.8 µM

CCc1ccc(S(=O)(=O)NC2c3cc(NC(=O)c4cccc(OC)c4)ccc3CC2O)cc1 (stereo not given)
IC50 [2]: 1.05 µM

CCCN(CC)C(CC)C(=O)Nc1c(C)cccc1C (stereo not given) [ETIDOCAINE]
IC50 [2]: 39 µM

COc1ccc(-n2nc(Sc3ccc(C)cc3)c(C)c(C#N)c2=O)cc1
IC50 [2]: 0.35 µM

C=C[C@H]1CN2CC[C@H]1C[C@@H]2[C@@H](O)c1ccnc2ccc(OC)cc12
inhibition [13]: 37%

CCCCC/C=C\C/C=C\C/C=C\C/C=C\CCCC(=O)NCCO [ANANDAMIDE]
IC50 [14]: 3 µM

FC(F)(F)C(Cl)Br (stereo not given)
Activity [15]: 65.6%
Activity [16]: > 60%
Activity [17]: 60%

CCN(CC)CC(=O)Nc1c(C)cccc1C [LIDOCAINE]
IC50 [2]: 222 µM
inhibition [18]: 62%

CCOC(=O)c1c(-c2cccc(N)c2)c(C)n2c1-c1cc(OC)c(OC)cc1CC2
IC50 [3]: 268 µM

CCCCC/C=C\C/C=C\C/C=C\C/C=C\CCCC(=O)N[C@H](C)CO [METHANANDAMIDE]
IC50 [19]: 0.1 µM

CCCN1CCCC[C@@H]1C(=O)Nc1c(C)cccc1C
IC50 [2]: 51 µM

CCOCC
inhibition [20]: 40%

CCOC(=O)N1CCC(=C2c3ccc(Cl)cc3CCc3cccnc32)CC1 [LORATADINE]
IC50 ([1]; hek293): 63.4 µM

Ic1ccccc1CN[C@@H]1C2CCN(CC2)[C@@H]1C(c1ccccc1)c1ccccc1
IC50 [1]: 45.5 µM

CN(C/C=C/C#CC(C)(C)C)Cc1cccc2ccccc12
Activity [21]: 30%

CCOC(=O)c1cc(C)n2c1-c1cc(OC)c(OC)cc1CC2
IC50 [2]: 83.5 µM

CC[N+](CC)(CC)CC
inhibition [22]: 6.1%

FC(F)OC(Cl)C(F)(F)F (stereo not given)
Activity [23]: 25%

CCCCN1CCCCC1C(=O)Nc1c(C)cccc1C (stereo not given) [BUPIVACAINE]
IC50 [24]: 100 µM
IC50 [25]: 41 to 68 µM
IC50 [2]: 41 µM
inhibition [13]: 56%

O=C(NCc1ccccc1-c1ccccc1C(=O)NCCc1ccccn1)OCc1ccccc1
IC50 [2]: 0.2 µM

CC(C1CC2CCC1C2)n1c(S)nnc1-c1ccco1 (stereo not given)
IC50 [4]: 3.2 µM
IC50 [26]: 0.413 µM

CCOC(=O)c1c(-c2cccs2)c(C)n2c1-c1cc(OC)c(OC)cc1CC2
IC50 [2]: 96.7 µM

CN1CCN(C2Cc3ccccc3Sc3ccc(Cl)cc32)CC1 (racemic)
IC50 [1]: 73.8 µM

CCCCNc1ccc(C(=O)OCCN(C)C)cc1 [TETRACAINE]
IC50 [2]: 668 µM

[Cl-].[Cs+]
Activity [15]: 7.7%

COc1cc2c(cc1OC)-c1c(C#N)c(-c3ccccc3)c(C)n1CC2
IC50 [3]: 189 µM

CCCC(=O)C1CCN(c2ncnc3c2CN(C(=O)c2ccc(-c4ccccc4)cc2)CC3)CC1
IC50 [5]: 0.01 µM

CC[C@@H]1/C=C/C=C/C[C@H](C)[C@@H](O)[C@](C)(O)C(=O)[C@H](C)[C@@H](O)[C@H](C)C(=O)[C@H](C)[C@@H](O)[C@H](C)/C=C/C(=O)O[C@H]2[C@@H](C)[C@@H](CC1)O[C@@]1(CC[C@@H](C)[C@@H](C[C@H](C)O)O1)[C@@H]2C
IC50 [1]: 47.7 µM
